Measured values from patent US20150152091A1, “CROP ENHANCEMENT” (Syngenta Participations AG, priority 2012, published 2015).

Assays:
Format in all cases: in vivo
[1] = tested on: temperate cauliflower Spacestar seeds (Brassica oleracea cv Botrytis); experiment: Standard paper germination test for Brassica, suboptimal conditions; settings: 25 μM, 10° C. in the light
Procedure: The effect of compounds of Formula (I) on the germination of Brassica oleracea cv Botrytis or common cauliflower was tested on two types of cauliflowers: temperate types and tropical types. These two types were chosen because they display different sensitivities to the light conditions and temperature during germination. Germination of a sensitive temperate type is inhibited by light at 10° C. while for the tropical types germination at 20° is stimulated by the presence of light. […] The temperate seed batches tested are part of commercially produced seed batches of various varieties which are known to be sensitive to light at 10° C. These seeds were harvested and cleaned according standard commercial procedures. Ready seed batches were used (Ready indicates the processing level of these seeds: they have been cleaned and sized but received no other treatments). The tropical seed batches tested are part of seed batches produced as basic seed (for maintenance of the parental line) and were processed accordingly. Germination was assessed using the standard paper germination test for Brassica: Fifty seeds were placed on blue germination paper, which was moistened with the appropriate solutions, in closed oblong germination boxes. Each condition was tested in duplo. Germination boxes were placed in controlled germination cabinets with the appropriate temperature and light conditions. Germination of seeds was counted at regular intervals. Seeds were considered to be germinated when the radical had protruded the testa and endosperm (radical size approximately 1 mm). Test compounds were dissolved in DMSO at a concentration of 50 mM and stored at −20° C. The strigolactone analogue GR24 (commercially available as a racemic mixture of 2 diastereoisomers, referred to as “synthetic strigolactone GR-24” and first prepared by Johnson A. W. & all, Journal of the Chemical Society, Perkin Transactions 1, 1981, page 1734-1743) was included as positive control. Germination solutions were prepared by diluting the stock solutions with demineralized water till 25 μM. As control solutions demineralized water and a 0.05% v/v DMSO solution were used.

[2] = tested on: Soybean seeds cv. Toliman; experiment: Soybean seedling emergence in saturated warm test (seed treatment)
Procedure: Soybean seeds cv. Toliman were treated with a test compound of formula I formulated as FS100, at a dose of 0.05 g ai/kg, 0.005 g ai/kg, or 0.0001 g ai/kg seeds. Seeds were planted on 2 cm levelled pre-chilled moist sand and covered with a 2 cm layer of a mixture of steamed soil and sand (1:1). Enough cold water (10° C.) was added to the sand-soil mixture to adjust soil moisture to 60% water holding capacity. The seeds were incubated at 10° C. in the dark for 10 days and transferred into a chamber with alternating temperature (25° C. day/23° C. night) and light source (12 h) for 10 days. Seedling emergence in % and dry mass of above parts of seedling per tray was determined at the end of the incubation period. The test was performed using four replicates (4×50 seeds). Treated seeds used in the saturated cold test were evaluated in parallel in a saturated warm test. Test conditions were the same as those described for the 10 day warm incubation period of the saturated cold test. Briefly, seeds were placed onto a saturated sand layer of 2 cm and covered with saturated sand-soil mixture (60% WHC) at room temperature. The seeds were incubated 10 days at 25° C. day/23° C. night and 12 h light. Seedling emergence and shoot dry mass was determined as described in the saturated cold test method. The test was performed using four replicates each 50 seeds.

[3] = tested on: Soybean seeds cv. Toliman; experiment: Soybean seedling emergence in saturated cold test (seed treatment); settings: for Total shoot dry mass: per tray
Procedure: Soybean seeds cv. Toliman were treated with a test compound of formula I formulated as FS100, at a dose of 0.05 g ai/kg, 0.005 g ai/kg, or 0.0001 g ai/kg seeds. Seeds were planted on 2 cm levelled pre-chilled moist sand and covered with a 2 cm layer of a mixture of steamed soil and sand (1:1). Enough cold water (10° C.) was added to the sand-soil mixture to adjust soil moisture to 60% water holding capacity. The seeds were incubated at 10° C. in the dark for 10 days and transferred into a chamber with alternating temperature (25° C. day/23° C. night) and light source (12 h) for 10 days. Seedling emergence in % and dry mass of above parts of seedling per tray was determined at the end of the incubation period. The test was performed using four replicates (4×50 seeds).

[4] = Spacestar 11B313 (cold-sensitive), set A
[5] = Spacestar 11B313 (cold-sensitive), set B
[6] = Spacestar 11B314 (not cold sensitive), set A
[7] = Spacestar 11B314 (not cold sensitive), set B
[8] = 0.05 g ai/kg seeds, 10 days 25/23° C.
[9] = 0.05 g ai/kg seeds, FS100, 10 days 10° C. dark then 10 days 25/23° C.

CC1=C[C@H](O/C=C2/C(=O)O[C@@H]3c4ccccc4C[C@H]23)OC1=O [GR24, reference compound]
Gmax (%), total germination as percentage of sown seeds [1, 4]: 71.5% | stimulation (%), extra germination compared to the DMSO treatment [1, 4]: 19.2% | Gmax (%), total germination as percentage of sown seeds [1, 5]: 80.0% | stimulation (%), extra germination compared to the DMSO treatment [1, 5]: 48.1% | Gmax (%), total germination as percentage of sown seeds [1, 6]: 93.5% | stimulation (%), extra germination compared to the DMSO treatment [1, 6]: 3.3% | Gmax (%), total germination as percentage of sown seeds [1, 7]: 93.0% | stimulation (%), extra germination compared to the DMSO treatment [1, 7]: 8.1%

CC1=CC(OC=C2C(=O)NC3c4ccccc4CC23)OC1=O (stereo not shown) [Compound A1]
Gmax (%), total germination as percentage of sown seeds [1, 4]: 77.0% | stimulation (%), extra germination compared to the DMSO treatment [1, 4]: 28.3% | Gmax (%), total germination as percentage of sown seeds [1, 6]: 90.5% | stimulation (%), extra germination compared to the DMSO treatment [1, 6]: 0.0% | Seedling emergence (%) ([2]; 0.0001 g ai/kg seeds): 88.5% | Total shoot dry mass ([2]; 0.0001 g ai/kg seeds): 6.053 g | Seedling emergence (%) ([2]; 0.005 g ai/kg seeds): 89% | Total shoot dry mass ([2]; 0.005 g ai/kg seeds): 6.010 g | Total shoot dry mass ([2]; 0.05 g ai/kg seeds): 6.023 g | Seedling emergence (%) [2, 8]: 91% | Seedling emergence (%) ([3]; 0.0001 g ai/kg seeds, FS100): 67.5% | Total shoot dry mass ([3]; 0.0001 g ai/kg seeds): 5.298 g | Seedling emergence (%) ([3]; 0.005 g ai/kg seeds, FS100): 63.5% | Total shoot dry mass ([3]; 0.005 g ai/kg seeds): 5.018 g | Seedling emergence (%) [3, 9]: 54.5% | Total shoot dry mass ([3]; 0.05 g ai/kg seeds): 4.438 g

CC1=CC(OC=C2C(=O)NC3c4cccc(Br)c4CC23)OC1=O (stereo not shown) [Compound A2]
Seedling emergence (%) ([2]; 0.0001 g ai/kg seeds): 89% | Total shoot dry mass ([2]; 0.0001 g ai/kg seeds): 5.763 g | Seedling emergence (%) ([2]; 0.005 g ai/kg seeds): 87.5% | Total shoot dry mass ([2]; 0.005 g ai/kg seeds): 6.105 g | Total shoot dry mass ([2]; 0.05 g ai/kg seeds): 6.325 g | Seedling emergence (%) [2, 8]: 91.5% | Seedling emergence (%) ([3]; 0.0001 g ai/kg seeds, FS100): 48.5% | Total shoot dry mass ([3]; 0.0001 g ai/kg seeds): 3.810 g | Seedling emergence (%) ([3]; 0.005 g ai/kg seeds, FS100): 49.5% | Total shoot dry mass ([3]; 0.005 g ai/kg seeds): 3.725 g | Seedling emergence (%) [3, 9]: 56% | Total shoot dry mass ([3]; 0.05 g ai/kg seeds): 3.993 g

CC1=CC(OC=C2C(=O)N(C(=O)OC(C)(C)C)C3c4ccccc4CC23)OC1=O (mixture of isomers) [Compound A5]
Gmax (%), total germination as percentage of sown seeds [1, 4]: 74.5% | stimulation (%), extra germination compared to the DMSO treatment [1, 4]: 24.2% | Gmax (%), total germination as percentage of sown seeds [1, 6]: 92.5% | stimulation (%), extra germination compared to the DMSO treatment [1, 6]: 2.2% | Seedling emergence (%) ([2]; 0.0001 g ai/kg seeds): 91% | Total shoot dry mass ([2]; 0.0001 g ai/kg seeds): 6.260 g | Seedling emergence (%) ([2]; 0.005 g ai/kg seeds): 91.5% | Total shoot dry mass ([2]; 0.005 g ai/kg seeds): 6.095 g | Total shoot dry mass ([2]; 0.05 g ai/kg seeds): 6.148 g | Seedling emergence (%) [2, 8]: 91.5% | Seedling emergence (%) ([3]; 0.0001 g ai/kg seeds, FS100): 48% | Total shoot dry mass ([3]; 0.0001 g ai/kg seeds): 3.420 g | Seedling emergence (%) ([3]; 0.005 g ai/kg seeds, FS100): 51.5% | Total shoot dry mass ([3]; 0.005 g ai/kg seeds): 3.815 g | Seedling emergence (%) [3, 9]: 55% | Total shoot dry mass ([3]; 0.05 g ai/kg seeds): 4.105 g

CC1=CC(OC=C2C(=O)N(C)C3c4ccccc4CC23)OC1=O (stereo not shown) [Compound A8]
Gmax (%), total germination as percentage of sown seeds [1, 5]: 73.0% | stimulation (%), extra germination compared to the DMSO treatment [1, 5]: 35.2% | Gmax (%), total germination as percentage of sown seeds [1, 7]: 93.5% | stimulation (%), extra germination compared to the DMSO treatment [1, 7]: 8.7%

CC1=C(C)C(OC=C2C(=O)NC3c4ccccc4CC23)OC1=O (stereo not shown) [Compound A7]
Gmax (%), total germination as percentage of sown seeds [1, 5]: 68.5% | stimulation (%), extra germination compared to the DMSO treatment [1, 5]: 26.9% | Gmax (%), total germination as percentage of sown seeds [1, 7]: 95.0% | stimulation (%), extra germination compared to the DMSO treatment [1, 7]: 10.5%

CC(=O)N1C(=O)C(=COC2C=C(C)C(=O)O2)C2Cc3ccccc3C21 (stereo not shown) [Compound A4]
Gmax (%), total germination as percentage of sown seeds [1, 4]: 82.0% | stimulation (%), extra germination compared to the DMSO treatment [1, 4]: 36.7% | Gmax (%), total germination as percentage of sown seeds [1, 6]: 91.0% | stimulation (%), extra germination compared to the DMSO treatment [1, 6]: 0.6% | Seedling emergence (%) ([2]; 0.0001 g ai/kg seeds): 89% | Total shoot dry mass ([2]; 0.0001 g ai/kg seeds): 6.035 g | Seedling emergence (%) ([2]; 0.005 g ai/kg seeds): 90% | Total shoot dry mass ([2]; 0.005 g ai/kg seeds): 5.908 g | Total shoot dry mass ([2]; 0.05 g ai/kg seeds): 5.920 g | Seedling emergence (%) [2, 8]: 86% | Seedling emergence (%) ([3]; 0.0001 g ai/kg seeds, FS100): 62% | Total shoot dry mass ([3]; 0.0001 g ai/kg seeds): 4.788 g | Seedling emergence (%) ([3]; 0.005 g ai/kg seeds, FS100): 62.5% | Total shoot dry mass ([3]; 0.005 g ai/kg seeds): 4.550 g | Seedling emergence (%) [3, 9]: 61.5% | Total shoot dry mass ([3]; 0.05 g ai/kg seeds): 4.850 g

CC1=CC(OC=C2C(=O)N(c3ccccc3)C3c4ccccc4CC23)OC1=O (stereo not shown) [Compound A3]
Gmax (%), total germination as percentage of sown seeds [1, 4]: 74.5% | stimulation (%), extra germination compared to the DMSO treatment [1, 4]: 24.2% | Gmax (%), total germination as percentage of sown seeds [1, 6]: 89.5% | stimulation (%), extra germination compared to the DMSO treatment [1, 6]: −1.1% | Seedling emergence (%) ([2]; 0.0001 g ai/kg seeds): 91% | Total shoot dry mass ([2]; 0.0001 g ai/kg seeds): 6.158 g | Seedling emergence (%) ([2]; 0.005 g ai/kg seeds): 87% | Total shoot dry mass ([2]; 0.005 g ai/kg seeds): 6.235 g | Total shoot dry mass ([2]; 0.05 g ai/kg seeds): 5.918 g | Seedling emergence (%) [2, 8]: 81% | Seedling emergence (%) ([3]; 0.0001 g ai/kg seeds, FS100): 67% | Total shoot dry mass ([3]; 0.0001 g ai/kg seeds): 4.838 g | Seedling emergence (%) ([3]; 0.005 g ai/kg seeds, FS100): 57% | Total shoot dry mass ([3]; 0.005 g ai/kg seeds): 4.540 g | Seedling emergence (%) [3, 9]: 51.5% | Total shoot dry mass ([3]; 0.05 g ai/kg seeds): 3.850 g

CC1=CC(OC=C2C(=O)NC3c4cccc(C)c4CC23)OC1=O (mixture of isomers) [Compound A9]
Gmax (%), total germination as percentage of sown seeds [1, 5]: 59.8% | stimulation (%), extra germination compared to the DMSO treatment [1, 5]: 10.6% | Gmax (%), total germination as percentage of sown seeds [1, 7]: 94.0% | stimulation (%), extra germination compared to the DMSO treatment [1, 7]: 9.3%

CC1=CC(OC=C2C(=O)NC3c4ccccc4CC23)OC1=O (stereo not shown) [Compound B1]
Gmax (%), total germination as percentage of sown seeds [1, 4]: 60.5% | stimulation (%), extra germination compared to the DMSO treatment [1, 4]: 0.8% | Gmax (%), total germination as percentage of sown seeds [1, 6]: 93.5% | stimulation (%), extra germination compared to the DMSO treatment [1, 6]: 3.3% | Seedling emergence (%) ([2]; 0.0001 g ai/kg seeds): 91% | Total shoot dry mass ([2]; 0.0001 g ai/kg seeds): 5.778 g | Seedling emergence (%) ([2]; 0.005 g ai/kg seeds): 94% | Total shoot dry mass ([2]; 0.005 g ai/kg seeds): 6.440 g | Total shoot dry mass ([2]; 0.05 g ai/kg seeds): 5.935 g | Seedling emergence (%) [2, 8]: 89% | Seedling emergence (%) ([3]; 0.0001 g ai/kg seeds, FS100): 58.5% | Total shoot dry mass ([3]; 0.0001 g ai/kg seeds): 4.440 g | Seedling emergence (%) ([3]; 0.005 g ai/kg seeds, FS100): 67% | Total shoot dry mass ([3]; 0.005 g ai/kg seeds): 5.065 g | Seedling emergence (%) [3, 9]: 44.5% | Total shoot dry mass ([3]; 0.05 g ai/kg seeds): 3.365 g
